No end group written: not given here.
Experiments:
[1] = mouse, plasma
B3Z T-cells = assay type: cell-based, murine

| Sequence | half-life [1] | T-cell activation after BMDC incubation with antibody constructs and the peptide (B3Z T-cells) |
| --- | --- | --- |
| FIGITELKKLESKINKVFAVGALKVPRNQDWLGVPRQL [UU-30] | 20 min |  |
| FIGITELKKLESKINKVFLEQLESIINFEKLAAAAAK [UU-05] |  | resulted in T-cell activation |
| LEQLESIINFEKLAAAAAK [UU-10, reference compound] |  | did not give rise to T-cell activation |

Source: patent US20220000998A1 (priority 2019, published 2022)
